Source: US9676756B2 (PORTOLA PHARMACEUTICALS, INC., priority 2012, dated 2017)

Columns and labels:
Assay type in all cases: biochemical
[1] = target: T1, JAK2 (Homo sapiens, UniProt O60674); experiment: JAK tyrosine phosphorylation activity, Z'-LYTE FRET kinase assay; details: catalytic domain recombinant kinase, Tyr6 peptide
T1 construct: 5 μl of catalytic domain recombinant Kinase enzyme+Tyr peptide substrate (Invitrogen, CA); purchased Invitrogen
Method: (§1) JAK and SYK tyrosine phosphorylation activity is measured using the Z'-LYTE™ Technology developed by Invitrogen Corporation (Carlsbad, Calif.). For JAK1, JAK2 and JAK3 the Z'-LYTE™ Kinase Assay Kit-Tyr6 Peptide (part number PV4122) was used. The Z'-LYTE™ biochemical assay employs a fluorescence resonance energy transfer (FRET) coupled-enzyme format and is based on the differential sensitivity of phosphorylated and non-phosphorylated peptides to proteolitic cleavage. The assay uses a synthetic peptide substrate that is labelled with a donor fluorophore (coumarin) and an acceptor fluorophore (fluorescein) that make up a FRET pair. In the primary reaction (the Kinase Reaction), the kinase transfers the γ-phosphate of ATP to a single tyrosine residue on the substrate, while the presence of a kinase inhibitor in the primary reaction suppresses phosphorylation. In the secondary reaction (the Development Reaction), a site-specific protease (the Development Reagent) is added. The development buffer quenches the Kinase Reaction, while the protease recognizes and cleaves non-phosphorylated Z'-LYTE™ peptide substrate. Cleavage disrupts FRET between the donor and acceptor fluorophores on the non-phosphorylated substrate, while uncleaved, phosphorylated substrate maintains FRET.
(§2) To test the ability of candidate molecules to inhibit JAK tyrosine phosphorylation activity, molecules are reconstituted in 100% DMSO and serially diluted 1:10 in polypropylene v-bottom microtiter plates. The candidate molecules are then diluted 1:25 into kinase buffer and 2.5 μl transferred into duplicate wells of a 384 well low volume black microtiter assay plate (Corning, USA). The final DMSO concentration in the assay is 1%. The kinase reaction contains 2.5 μl of a candidate molecule, 5 μl of catalytic domain recombinant Kinase enzyme+Tyr peptide substrate (Invitrogen, CA) and 2.5 μl ATP (Invitrogen, CA). The kinase reaction is allowed to precede for 1 hour at room temperature. The protease reaction is initiated by the addition of 5 μl Development Reagent (Invitrogen, CA). After 1 hour incubation at room temperature the fluorescence is measured using a FlexStation plate reader (Molecular Devices, Sunnyvale, Calif.). The reader settings used are as follows: Fluorescence mode, endpoint, top read, excitation 400 nm, emission 445 nm and 520 nm. Auto Cutoff 435 nm and 515 nm, PMT sensitivity high, 6 reads per well. Inhibition of JAK activity is calculated as the percent phosphorylation of substrate in the presence of inhibitor compared to the percent phosphorylation of substrate in the absence of inhibitor. IC50's were derived using Xlfit 4.3 (IDBS, UK), 4 parameter logistic model 205: Y=(A+((B−A)/(1+((C/x)^D)))).

[2] = target: T2, JAK3 (Homo sapiens, UniProt P52333); experiment: as above; details: catalytic domain recombinant kinase, Tyr6 peptide
T2 construct: 5 μl of catalytic domain recombinant Kinase enzyme+Tyr peptide substrate (Invitrogen, CA); purchased Invitrogen
Method: as §1, §2

[3] = target: T3, JAK1 (Homo sapiens, UniProt P23458); experiment: as above; details: catalytic domain recombinant kinase, Tyr6 peptide; for IC50: read-out: JAK1 IC50 % Inhibition
T3 construct: 5 μl of catalytic domain recombinant Kinase enzyme+Tyr peptide substrate (Invitrogen, CA); purchased Invitrogen
Method: as §1, §2

[4] = target: T4, full length active recombinant SYK enzyme (Homo sapiens, UniProt P43405); experiment: SYK tyrosine phosphorylation activity, LANCE TR-FRET kinase assay; details: 1 nM SYK, 100 μM ATP, 1 hour at room temperature
T4 construct: full length active recombinant SYK enzyme (Millipore, CA); purchased Millipore
Method: Potency of candidate molecules for inhibiting Syk tyrosine phosphorylation activity is assessed by measuring the ability of a test compound to inhibit Syk-mediated tyrosine phosphorylation of a Syk-specific substrate.
SYK tyrosine phosphorylation activity is measured using the LANCE™ Technology developed by Perkin Elmer Life and Analytical Sciences (Boston, Mass.). LANCE™ refers to homogeneous time resolved fluorometry applications using techniques such as time-resolved fluorescence resonance energy transfer assay (TR-FRET) (see generally for procedures in Perkin Elmer Application Note—How to Optimize a Tyrosine Kinase Assay Using Time Resolved Fluorescence-Based LANCE Detection, wwww.perkinelmer.com/lifesciences). The assay principle involves detection of a phosphorylated substrate using energy transfer from a phosphospecific europium-labeled antibody to streptavidin-allophycocyanin as an acceptor.
To test the ability of candidate molecules to inhibit SYK tyrosine phosphorylation activity, molecules are reconstituted in 30% DMSO and serially diluted 1:3 with the final dilution containing DMSO in the absence of the candidate molecule. The final DMSO concentration in the assay is 3%. Kinase assays are performed as a two part reaction. The first reaction is a kinase reaction that comprises a candidate molecule, full length active recombinant SYK enzyme (Millipore, CA) and biotin-labeled SYK-specific substrate biotin-[…]-OH. The second reaction involves termination of the kinase reaction and the simultaneous addition of the detection reagents-europium-labeled anti-phosphotyrosine reagent (Eu-W1024-PY100, Perkin Elmer, Boston, Mass.) and Streptavidin-Allophycocyanin detection reagent (SA-APC, Prozyme, CA). The kinase reaction is performed in a black U-bottom 96-well microtitre plate. The final reaction volume is 50 μL and contains a final concentration of 1 nM active SYK enzyme, 550 nM SYK-substrate, and 100 μM ATP diluted in a buffer containing 50 mM Tris pH 7.5, 5 mM MgCl2, and 1 mM DTT. The reaction is allowed to proceed for 1 hour at room temperature. The stop buffer contains 100 mM Tris pH 7.5, 300 mM NaCl2, 20 mM EDTA, 0.02% Brij35, and 0.5% BSA. The detection reagents are added to the reaction mixture at the following dilutions—1:500 for Eu-W1024-PY100 and 1:250 for SA-APC. The kinase reaction is terminated by the addition of 50 μL stop buffer containing the detection reagents. The detection is allowed to proceed for 1 hr at room temperature. Detection of the phosphorolated substrate in the absence and presence of inhibitors is measured in the TR-FRET instrument, Analyst HT (Molecular Probes, Sunnyvale, Calif.) and the condition for measurements are set up using CriterionHost Release 2.0 (Molecular Probes, Sunnyvale, Calif.). The settings used are a follows: excitation 360 nm, emission 665-7.5 nm, beam splitter 350 nm 50/50, flash 100 pulses, delay 60 us, integration 400 us, z-height 2 mm. Inhibition of SYK-tyrosine kinase activity is calculated as the maximum response observed in the presence of inhibitor, compared to that in the absence of inhibitor. IC50s are derived by non-linear regression analysis.

T1 sequence (O60674 849-1124 limits assumed): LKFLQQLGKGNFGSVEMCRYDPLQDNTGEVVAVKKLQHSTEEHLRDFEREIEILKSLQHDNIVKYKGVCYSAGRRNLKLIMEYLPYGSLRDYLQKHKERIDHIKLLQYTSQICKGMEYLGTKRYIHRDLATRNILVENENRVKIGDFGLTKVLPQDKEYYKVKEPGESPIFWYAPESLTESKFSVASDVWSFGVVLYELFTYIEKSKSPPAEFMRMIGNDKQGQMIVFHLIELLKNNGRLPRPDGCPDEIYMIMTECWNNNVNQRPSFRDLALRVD
T2 sequence (P52333 822-1111 limits assumed): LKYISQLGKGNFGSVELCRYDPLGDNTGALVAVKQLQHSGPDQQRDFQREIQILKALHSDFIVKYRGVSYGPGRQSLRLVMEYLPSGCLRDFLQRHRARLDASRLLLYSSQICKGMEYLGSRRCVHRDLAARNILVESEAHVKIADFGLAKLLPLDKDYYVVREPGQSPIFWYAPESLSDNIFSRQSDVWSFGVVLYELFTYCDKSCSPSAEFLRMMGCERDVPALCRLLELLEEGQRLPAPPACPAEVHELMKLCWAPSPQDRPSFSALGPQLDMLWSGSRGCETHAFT
T3 sequence (P23458 875-1153 limits assumed): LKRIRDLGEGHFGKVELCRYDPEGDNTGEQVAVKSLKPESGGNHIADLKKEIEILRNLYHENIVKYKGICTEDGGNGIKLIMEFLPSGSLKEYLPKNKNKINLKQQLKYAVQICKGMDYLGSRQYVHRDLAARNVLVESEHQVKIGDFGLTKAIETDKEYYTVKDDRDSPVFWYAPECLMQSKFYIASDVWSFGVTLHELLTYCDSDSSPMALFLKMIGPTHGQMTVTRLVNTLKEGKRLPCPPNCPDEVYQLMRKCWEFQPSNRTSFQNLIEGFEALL

CS(=O)(=O)N1CCN(c2ccc(Nc3ncc(C(N)=O)c(NC4CC4)n3)cc2C#N)CC1 [Compound 47, 2-((3-cyano-4-(4-(methylsulfonyl)piperazin-1-yl)phenyl)amino)-4-(cyclopropylamino)pyrimidine-5-carboxamide]
JAK2 IC50 potency class [1]: ++++ (0.01 uM<IC50<0.001 uM) | JAK3 IC50 potency class [2]: ++++ (0.01 uM<IC50<0.001 uM) | JAK1 IC50 potency class [3]: +++ (0.10 uM<IC50<0.01 uM) | IC50 [4]: ++ (1.0 uM<IC50<0.10 uM)

CCS(=O)(=O)N1CCN(c2ccc(Nc3ncc(C(N)=O)c(NC4CC4)n3)cc2C#N)CC1 [Compound 48, 2-((3-cyano-4-(4-(ethylsulfonyl)piperazin-1-yl)phenyl)amino)-4-(cyclopropylamino)pyrimidine-5-carboxamide]
JAK2 IC50 potency class [1]: +++ (0.10 uM<IC50<0.01 uM) | JAK3 IC50 potency class [2]: ++++ (0.01 uM<IC50<0.001 uM) | JAK1 IC50 potency class [3]: ++ (1.0 uM<IC50<0.10 uM) | IC50 [4]: ++ (1.0 uM<IC50<0.10 uM)

CS(=O)(=O)N1CCN(c2c(F)cc(Nc3ncc(C(N)=O)c(NC4CC4)n3)cc2F)CC1 [Compound 49, 4-(cyclopropylamino)-2-((3,5-difluoro-4-(4-(methylsulfonyl)piperazin-1-yl)phenyl)amino)pyrimidine-5-carboxamide]
JAK2 IC50 potency class [1]: +++ (0.10 uM<IC50<0.01 uM) | JAK3 IC50 potency class [2]: +++ (0.10 uM<IC50<0.01 uM) | JAK1 IC50 potency class [3]: ++ (1.0 uM<IC50<0.10 uM) | IC50 [4]: ++ (1.0 uM<IC50<0.10 uM)

CCS(=O)(=O)N1CCN(c2c(F)cc(Nc3ncc(C(N)=O)c(NC4CC4)n3)cc2F)CC1 [Compound 50, 4-(cyclopropylamino)-2-((4-(4-(ethylsulfonyl)piperazin-1-yl)-3,5-difluorophenyl)amino)pyrimidine-5-carboxamide]
JAK2 IC50 potency class [1]: ++ (1.0 uM<IC50<0.10 uM) | JAK3 IC50 potency class [2]: ++ (1.0 uM<IC50<0.10 uM) | IC50 [3]: > 1 µM | IC50 [4]: ++ (1.0 uM<IC50<0.10 uM)

COc1cc(Nc2ncc(C(N)=O)c(NC3CC3)n2)ccc1N1CCC(C(=O)N(C)C)CC1 [Compound 51, 4-(cyclopropylamino)-2-((4-(4-(dimethylcarbamoyl)piperidin-1-yl)-3-methoxyphenyl)amino)pyrimidine-5-carboxamide]
JAK2 IC50 potency class [1]: ++++ (0.01 uM<IC50<0.001 uM) | JAK3 IC50 potency class [2]: ++++ (0.01 uM<IC50<0.001 uM) | JAK1 IC50 potency class [3]: +++ (0.10 uM<IC50<0.01 uM) | IC50 [4]: ++ (1.0 uM<IC50<0.10 uM)

CN(C)C(=O)C1CCN(c2ccc(Nc3ncc(C(N)=O)c(NC4CC4)n3)cc2F)CC1 [Compound 52, 4-(cyclopropylamino)-2-((4-(4-(dimethylcarbamoyl)piperidin-1-yl)-3-fluorophenyl)amino)pyrimidine-5-carboxamide]
JAK2 IC50 potency class [1]: ++++ (0.01 uM<IC50<0.001 uM) | JAK3 IC50 potency class [2]: ++++ (0.01 uM<IC50<0.001 uM) | JAK1 IC50 potency class [3]: +++ (0.10 uM<IC50<0.01 uM) | IC50 [4]: +++ (0.10 uM<IC50<0.01 uM)

CN(C)C(=O)C1CCN(c2ccc(Nc3ncc(C(N)=O)c(NC4CC4)n3)cc2Cl)CC1 [Compound 53, 2-((3-chloro-4-(4-(dimethylcarbamoyl)piperidin-1-yl)phenyl)amino)-4-(cyclopropylamino)pyrimidine-5-carboxamide]
JAK2 IC50 potency class [1]: ++++ (0.01 uM<IC50<0.001 uM) | JAK3 IC50 potency class [2]: ++++ (0.01 uM<IC50<0.001 uM) | JAK1 IC50 potency class [3]: +++ (0.10 uM<IC50<0.01 uM) | IC50 [4]: +++ (0.10 uM<IC50<0.01 uM)

NC(=O)c1cnc(Nc2ccc(N3CCOCC3)c(F)c2)nc1NC1CC1 [Compound 54, 4-(cyclopropylamino)-2-((3-fluoro-4-morpholinophenyl)amino)pyrimidine-5-carboxamide]
JAK2 IC50 potency class [1]: ++++ (0.01 uM<IC50<0.001 uM) | JAK3 IC50 potency class [2]: ++++ (0.01 uM<IC50<0.001 uM) | JAK1 IC50 potency class [3]: +++ (0.10 uM<IC50<0.01 uM) | IC50 [4]: +++ (0.10 uM<IC50<0.01 uM)

NC(=O)c1cnc(Nc2ccc(C3CCNCC3)cc2)nc1NC1CC1 [Compound 55, 4-(cyclopropylamino)-2-((4-(piperidin-4-yl)phenyl)amino)pyrimidine-5-carboxamide]
JAK2 IC50 potency class [1]: ++++ (0.01 uM<IC50<0.001 uM) | JAK3 IC50 potency class [2]: ++++ (0.01 uM<IC50<0.001 uM) | JAK1 IC50 potency class [3]: +++ (0.10 uM<IC50<0.01 uM) | IC50 [4]: +++ (0.10 uM<IC50<0.01 uM)

NC(=O)c1cnc(Nc2ccc(C3=CCNCC3)cc2)nc1NC1CC1 [Compound 56, 4-(cyclopropylamino)-2-((4-(1,2,3,6-tetrahydropyridin-4-yl)phenyl)amino)pyrimidine-5-carboxamide]
JAK2 IC50 potency class [1]: +++ (0.10 uM<IC50<0.01 uM) | JAK3 IC50 potency class [2]: ++++ (0.01 uM<IC50<0.001 uM) | JAK1 IC50 potency class [3]: +++ (0.10 uM<IC50<0.01 uM) | IC50 [4]: +++ (0.10 uM<IC50<0.01 uM)

CCS(=O)(=O)N1CC=C(c2ccc(Nc3ncc(C(N)=O)c(NC4CC4)n3)cc2)CC1 [Compound 57, 4-(cyclopropylamino)-2-((4-(1-(ethylsulfonyl)-1,2,3,6-tetrahydropyridin-4-yl)phenyl)amino)pyrimidine-5-carboxamide]
JAK2 IC50 potency class [1]: +++ (0.10 uM<IC50<0.01 uM) | JAK3 IC50 potency class [2]: ++++ (0.01 uM<IC50<0.001 uM) | JAK1 IC50 potency class [3]: +++ (0.10 uM<IC50<0.01 uM) | IC50 [4]: +++ (0.10 uM<IC50<0.01 uM)

CC(C)c1ccc(Nc2ncc(C(N)=O)c(NC3CC3)n2)cc1 [Compound 59, 4-(cyclopropylamino)-2-((4-isopropylphenyl)amino)pyrimidine-5-carboxamide]
JAK2 IC50 potency class [1]: ++ (1.0 uM<IC50<0.10 uM) | JAK3 IC50 potency class [2]: +++ (0.10 uM<IC50<0.01 uM) | JAK1 IC50 potency class [3]: ++ (1.0 uM<IC50<0.10 uM) | IC50 [4]: +++ (0.10 uM<IC50<0.01 uM)

NC(=O)c1cnc(Nc2ccc(C3CCNCC3)cc2)cc1NC1CC1 [Compound 63, 4-(cyclopropylamino)-6-((4-(piperidin-4-yl)phenyl)amino)nicotinamide]
JAK2 IC50 potency class [1]: ++ (1.0 uM<IC50<0.10 uM) | JAK3 IC50 potency class [2]: ++ (1.0 uM<IC50<0.10 uM) | IC50 [3]: > 1 µM | IC50 [4]: ++ (1.0 uM<IC50<0.10 uM)
